Measurements from US20050153872A1, “Methods and compositions for the treatment of infection” (priority 2004, published 2005).
Converted amounts (≈) assume the structure as drawn.

Columns and labels:
[1] = system: S. aureus strain ATCC BAA-42 MRSA; conditions: all agents 5 μg/ml
Acenetobactor (20) = experiment: In vitro antibacterial activity (MIC), clinical isolates; type: cell-based
Description: (§1) The following experiments were performed by Lab. of Pharmacology, National Sichuan antibiotic industril institute, Chengdu, Sichuan.
(§2) The following agents were used to test the in vitro activity of Ph-SA:
(§3) All the bacterial strains used in the experiments were clinical isolates collected from Sichuan and Beijing in 2002 and identified by West China Hospital, Sichuan University and Chongqing University of Medical Sciences with API system. The following strains were used in the experiments detailed below: Staphylococcus aureus 168 strains (MRSA 80 strains and MSSA 88 strains) Staphylococcus epidermidis 46 strains (MRSE 25 strains and MSSE 21 strains), Enterococcus 20 strains, and Acenetobactor 20 strains. Staphylococcus aureus ATCC25923, 29213 and BAA-42 were used as control strains. Bacterial strains were contacted with one of the above described compounds and MIC50, MIC90 and MICScope were determined.

[2] = system: Staphylococcus aureus MRSA strain (80); experiment: as above; type: cell-based; conditions: Staphylococcus aureus, MRSA
Description: as §1, §2, §3

Enterococcus (20) = experiment: as above; type: cell-based; conditions: 20 Enterococcus clinical isolates
Description: as §1, §2, §3

[3] = system: Staphylococcus epidermidis MSSE strain (21); experiment: as above; type: cell-based; conditions: Staphylococcus epidermidis, 21 MSSE clinical isolates
Description: as §1, §2, §3

[4] = system: Staphylococcus epidermidis MRSE strain (25); experiment: as above; type: cell-based; conditions: Staphylococcus epidermidis, MRSE
Description: as §1, §2, §3

[5] = system: Staphylococcus aureus MSSA strain (88); experiment: as above; type: cell-based; conditions: Staphylococcus aureus, 88 MSSA clinical isolates
Description: as §1, §2, §3

[6] = system: ATCC 700671 PRSP (S. pneumoniae); experiment: In vivo protection effects of Ph-SP; design: species or system mice; conditions: 5 animals
Description: To assess the in vivo effect of Ph-SP, mice were injected with ATCC 700671 PRSP intraperitoneally, followed by intravenous injections of PH-SP or controls.
One hour after administration of the fatal dose of ATCC 700671 PRSP (10^5 CFU/ml), each mouse was injected through the tail vein with test agents at three dosages as described in Table 4.

## Cc1onc(-c2ccccc2)c1C(=O)N[C@@H]1C(=O)N2[C@@H]1SC(C)(C)[C@@H]2C(=O)O [Oxacillin, oxacillin]
[1]
  inhibition of growth: did not inhibit the growth
Acenetobactor (20)
  MIC50: > 128 µg/mL
  MIC90: > 128 µg/mL
Acenetobactor (20); read-out: MIC Scope
  MIC: > 128 µg/mL
[2]
  MIC50: > 128 µg/mL
  MIC90: > 128 µg/mL
[2]; read-out: MIC Scope
  MIC: 0.5 to 128 µg/mL (≈ 1.25 to 319 µM)
Enterococcus (20); read-out: MIC50
  MIC50: 16 µg/mL (≈ 39.9 µM)
Enterococcus (20); read-out: MIC90
  MIC90: > 128 µg/mL
[3]
  MIC: 0.015 to 0.25 µg/mL (≈ 0.0374 to 0.623 µM)
[3]; read-out: MIC50
  MIC50: 0.03 µg/mL (≈ 0.0747 µM)
[3]; read-out: MIC90
  MIC90: 0.25 µg/mL (≈ 0.623 µM)
[4]
  MIC50: 64 µg/mL (≈ 159 µM)
  MIC90: > 128 µg/mL
[5]; read-out: MIC50
  MIC50: 0.125 µg/mL (≈ 0.311 µM)
[5]; read-out: MIC90
  MIC90: 0.125 µg/mL (≈ 0.311 µM)
[5]; read-out: MIC Scope
  MIC: 0.015 to 0.25 µg/mL (≈ 0.0374 to 0.623 µM)

## cephalomycin
[6]; 5 mg/kg tail vein
  Death distribution in hours 24 h: 3
  Death distribution in hours 48 h: 1
  Death distribution in hours 72 h: 0
  Death distribution in hours 96 h: 0
  Death distribution in hours 120 h: 0
  Death distribution in hours 144 h: 0
  Death distribution in hours 168 h: 0
  Number of Death: 4
[6]; 10 mg/kg tail vein
  Death distribution in hours 24 h: 2
  Death distribution in hours 48 h: 1
  Death distribution in hours 72 h: 0
  Death distribution in hours 96 h: 0
  Death distribution in hours 120 h: 0
  Death distribution in hours 144 h: 0
  Death distribution in hours 168 h: 0
  Number of Death: 3

B1: Ph-SAR1: the AgrDI pheromone of S. aureus linked to the N-terminus of Colicin Ia (protein)
chain: YSTCDFIMSDPVRITNPGAESLGYDSDGHEIMAVDIYVNPPRVDVFHGTPPAWSSFGNKTIWGGNEWVDDSPTRSDIEKRDKEITAYKNTLSAQQKENENKRTEAGKRLSAAIAAREKDENTLKTLRAGNADAADITRQEFRLLQAELREYGFRTEIAGYDALRLHTESRMLFADADSLRISPREARSLIEQAEKRQKDAQNADKKAADMLAEYERRKGILDTRLSELEKNGGAALAVLDAQQARLLGQQTRNDRAISEARNKLSSVTESLNTARNALTRAEQQLTQQKNTPDGKTIVSPEKFPGRSSTNHSIVVSGDPRFAGTIKITTSAVIDNRANLNYLLSHSGLDYKRNILNDRNPVVTEDVEGDKKIYNAEVAEWDKLRQRLLDARNKITSAESAVNSARNNLSARTNEQKHANDALNALLKEKENIRNQLSGINQKIAEEKRKQDELKATKDAINFTTEFLKSVSEKYGAKAEQLAREMAGQAKGKKIRNVEEALKTYEKYRADINKKINAKDRAAIAAALESVKLSDISSNLNRFSRGLGYAGKFTSLADWITEFGKAVRTENWRPLFVKTETIIAGNAATALVALVFSILTGSALGIIGYGLLMAVTGALIDESLVEKANKFWGI
modifications: Pheromone peptide from Staphylococcus aureus AgrDI attached to Colicin Ia
[1]
  inhibition of growth: did not inhibit the growth

B2: Ph-SA2: Colicin Ia linked to the AgrDII pheromone of S. aureus (protein)
chain: SDPVRITNPGAESLGYDSDGHEIMAVDIYVNPPRVDVFHGTPPAWSSFGNKTIWGGNEWVDDSPTRSDIEKRDKEITAYKNTLSAQQKENENKRTEAGKRLSAAIAAREKDENTLKTLRAGNADAADITRQEFRLLQAELREYGFRTEIAGYDALRLHTESRMLFADADSLRISPREARSLIEQAEKRQKDAQNADKKAADMLAEYERRKGILDTRLSELEKNGGAALAVLDAQQARLLGQQTRNDRAISEARNKLSSVTESLNTARNALTRAEQQLTQQKNTPDGKTIVSPEKFPGRSSTNHSIVVSGDPRFAGTIKITTSAVIDNRANLNYLLSHSGLDYKRNILNDRNPVVTEDVEGDKKIYNAEVAEWDKLRQRLLDARNKITSAESAVNSARNNLSARTNEQKHANDALNALLKEKENIRNQLSGINQKIAEEKRKQDELKATKDAINFTTEFLKSVSEKYGAKAEQLAREMAGQAKGKKIRNVEEALKTYEKYRADINKKINAKDRAAIAAALESVKLSDISSNLNRFSRGLGYAGKFTSLADWITEFGKAVRTENWRPLFVKTETIIAGNAATALVALVFSILTGSALGIIGYGLLMAVTGALIDESLVEKANKFWGIGVNACSSLF
modifications: Colicin attached to Pheromone peptide encoding Staphylococcus aureus AgrDII
[1]
  inhibition of growth: some inhibition effects

B3: Ph-SA4: Colicin Ia linked to the AgrDIV pheromone of S. aureus (protein)
chain: SDPVRITNPGAESLGYDSDGHEIMAVDIYVNPPRVDVFHGTPPAWSSFGNKTIWGGNEWVDDSPTRSDIEKRDKEITAYKNTLSAQQKENENKRTEAGKRLSAAIAAREKDENTLKTLRAGNADAADITRQEFRLLQAELREYGFRTEIAGYDALRLHTESRMLFADADSLRISPREARSLIEQAEKRQKDAQNADKKAADMLAEYERRKGILDTRLSELEKNGGAALAVLDAQQARLLGQQTRNDRAISEARNKLSSVTESLNTARNALTRAEQQLTQQKNTPDGKTIVSPEKFPGRSSTNHSIVVSGDPRFAGTIKITTSAVIDNRANLNYLLSHSGLDYKRNILNDRNPVVTEDVEGDKKIYNAEVAEWDKLRQRLLDARNKITSAESAVNSARNNLSARTNEQKHANDALNALLKEKENIRNQLSGINQKIAEEKRKQDELKATKDAINFTTEFLKSVSEKYGAKAEQLAREMAGQAKGKKIRNVEEALKTYEKYRADINKKINAKDRAAIAAALESVKLSDISSNLNRFSRGLGYAGKFTSLADWITEFGKAVRTENWRPLFVKTETIIAGNAATALVALVFSILTGSALGIIGYGLLMAVTGALIDESLVEKANKFWGIYSTCYFIM
modifications: Colicin attached to Pheromone peptide encoding Staphylococcus aureus AgrDIV
[1]
  inhibition of growth: best inhibitory effects

B4: Ph-SA3: Colicin Ia linked to the AgrDIII pheromone of S. aureus (protein)
chain: SDPVRITNPGAESLGYDSDGHEIMAVDIYVNPPRVDVFHGTPPAWSSFGNKTIWGGNEWVDDSPTRSDIEKRDKEITAYKNTLSAQQKENENKRTEAGKRLSAAIAAREKDENTLKTLRAGNADAADITRQEFRLLQAELREYGFRTEIAGYDALRLHTESRMLFADADSLRISPREARSLIEQAEKRQKDAQNADKKAADMLAEYERRKGILDTRLSELEKNGGAALAVLDAQQARLLGQQTRNDRAISEARNKLSSVTESLNTARNALTRAEQQLTQQKNTPDGKTIVSPEKFPGRSSTNHSIVVSGDPRFAGTIKITTSAVIDNRANLNYLLSHSGLDYKRNILNDRNPVVTEDVEGDKKIYNAEVAEWDKLRQRLLDARNKITSAESAVNSARNNLSARTNEQKHANDALNALLKEKENIRNQLSGINQKIAEEKRKQDELKATKDAINFTTEFLKSVSEKYGAKAEQLAREMAGQAKGKKIRNVEEALKTYEKYRADINKKINAKDRAAIAAALESVKLSDISSNLNRFSRGLGYAGKFTSLADWITEFGKAVRTENWRPLFVKTETIIAGNAATALVALVFSILTGSALGIIGYGLLMAVTGALIDESLVEKANKFWGIYINCDFLL
modifications: Colicin attached to Pheromone peptide encoding Staphylococcus aureus AgrDIII
[1]
  inhibition of growth: some inhibition effects

B5: Ph-SE: Colicin Ia linked to the pheromone of S. epidermidis (protein)
chain: SDPVARGITNPGAESLGYDSDGHEIMAVASPIYVASNPPRVASPVFHGTPPAWSSFGNKTIWGGNEWVASPDSPTRSDIEKRDKEITAYKNTLSAQQKENENKRTEAGKRLSAAIAAREKDENTLKTLRAGNADAADITRQEFRLLQAELREYGFRTEIAGYDALRLHTESRMLFADADSLRISPREARSLIEQAEKRQKDAQNADKKAADMLAEYERRKGILDTRLSELEKNGGAALAVLDAQQARLLGQQTRNDRAISEARNKLSSVTESLNTARNALTRAEQQLTQQKNTPDGKTIVSPEKFPGRSSTNHSIVVSGDPRFAGTIKITTSAVIDNRANLNYLLSHSGLDYKRNILNDRNPVVTEDVEGDKKIYNAEVALAEWDKLRQRLLDARNKITSAESAVASNSARNNLSARTNEQKHANDALNALLKEKENIRNQLSGINQKIAEEKRKQDELKATKDAINFTTEFLKSVSEKYGAKAEQLAREMAGQAKGKKIRNVEEALKTYEKYRADINKKINAKDRAAIAAALESVKLSDISSNLNRFSRGLGYAGKFTSLADWITEFGKAVARGTENWRPLFVKTETIIAGNAATALVALALVFSILTGSALGIIGYGLLMAVTGALIDESLVEKANKFWGIDSVCASYF
modifications: Colicin Ia attached to Pheromone peptide from Staphylococcus epidermidis
[1]
  inhibition of growth: better effects
